# Source: ChEMBL document CHEMBL1128593, “Chemistry and antimicrobial activity of caryoynencins analogs” (1995)
# What was measured:
# Escherichia coli [1] = assay: Antimicrobial activity of the Compound was tested for minimum inhibitory concentration against Escherichia coli NIHJ; format: functional
# Klebsiella pneumoniae [2] = assay: Antimicrobial activity of the Compound was tested for minimum inhibitory concentration against Klebsiella pneumoniae 846(R); format: functional
# Escherichia coli [3] = assay: Antimicrobial activity of the Compound was tested for minimum inhibitory concentration against Escherichia coli 609; format: functional
# Candida albicans [4] = assay: Antimicrobial activity of the Compound was tested for minimum inhibitory concentration against Candida albicans; format: functional
# Staphylococcus aureus [5] = assay: Antimicrobial activity of the Compound was tested for minimum inhibitory concentration against Staphylococcus aureus 535 (MRSA); format: functional
# Pseudomonas aeruginosa [6] = assay: Antimicrobial activity of the Compound was tested for minimum inhibitory concentration against Pseudomonas aeruginosa N07; format: functional
# Candida albicans [7] = assay: Antimicrobial activity of the Compound was tested for minimum inhibitory concentration against Candida albicans SC; format: functional
# Enterobacter cloacae = assay: Antimicrobial activity of the Compound was tested for minimum inhibitory concentration against Enterobacter cloacae 963; format: functional
# Trichophyton benhamiae [8] = assay: Antimicrobial activity of the Compound was tested for minimum inhibitory concentration against Trichophyton mentagrophytes; format: functional, Arthroderma benhamiae
# Cryptococcus neoformans = assay: Antimicrobial activity of the Compound was tested for minimum inhibitory concentration against Cryptococcus neoformans 58063; format: functional
# Bacillus subtilis = assay: Antimicrobial activity of the Compound was tested for minimum inhibitory concentration against Bacillus subtilis ATCC 6633; format: functional
# Staphylococcus aureus [9] = assay: Antimicrobial activity of the Compound was tested for minimum inhibitory concentration against Staphylococcus aureus 209P; format: functional
# Nannizzia gypsea = assay: Antimicrobial activity of the Compound was tested for minimum inhibitory concentration against Microsporum gypseum 11268; format: functional
# Klebsiella pneumoniae [10] = assay: Antimicrobial activity of the Compound was tested for minimum inhibitory concentration against Klebsiella pneumoniae 806; format: functional
# Salmonella enteritidis = assay: Antimicrobial activity of the Compound was tested for minimum inhibitory concentration against Salmonella enteritidis; format: functional, Salmonella enterica subsp. enterica serovar Enteritidis; conditions: Salmonella enterica
# Mucor mucedo = assay: Antimicrobial activity of the Compound was tested for minimum inhibitory concentration against Mucor mucedo 14358; format: functional
# Staphylococcus aureus [11] = assay: Antimicrobial activity of the Compound was tested for minimum inhibitory concentration against Staphylococcus aureus 56R; format: functional
# Aspergillus fumigatus = assay: Antimicrobial activity of the Compound was tested for minimum inhibitory concentration against Aspergillus fumigatus 10569; format: functional
# Enterococcus faecalis = assay: Antimicrobial activity of the Compound was tested for minimum inhibitory concentration against Enterococcus faecalis 681; format: functional
# Pseudomonas aeruginosa [12] = assay: Antimicrobial activity of the Compound was tested for minimum inhibitory concentration against Pseudomonas aeruginosa 1001; format: functional
# Proteus vulgaris = assay: Antimicrobial activity of the Compound was tested for minimum inhibitory concentration against Proteus vulgaris 1420; format: functional
# Serratia marcescens = assay: Antimicrobial activity of the Compound was tested for minimum inhibitory concentration against Serratia marcescens 1184; format: functional
# Trichophyton benhamiae [13] = assay: Antimicrobial activity of the Compound was tested for minimum inhibitory concentration against Trichophyton mentagrophytes SC; format: functional, Arthroderma benhamiae
# Trichophyton rubrum [14] = assay: Antimicrobial activity of the Compound was tested for minimum inhibitory concentration against Trichophyton rubrum; format: functional
# Shigella flexneri [15] = assay: Antimicrobial activity of the Compound was tested for minimum inhibitory concentration against Shigella flexneriII D642; format: functional
# [16] = system: Trichophyton interdigitale; assay: Antimicrobial activity of the Compound was tested for minimum inhibitory concentration against Trichophyton interdigitale; format: functional
# Trichophyton rubrum [17] = assay: Antimicrobial activity of the Compound was tested for minimum inhibitory concentration against Trichophyton rubrum SC; format: functional
# Shigella flexneri [18] = assay: Antimicrobial activity of the Compound was tested for minimum inhibitory concentration against Shigella flexneri IID642; format: functional
Structure (SMILES),MIC (Escherichia coli [1]),MIC (Klebsiella pneumoniae [2]),MIC (Escherichia coli [3]),MIC (Candida albicans [4]),MIC (Staphylococcus aureus [5]),MIC (Pseudomonas aeruginosa [6]),MIC (Enterobacter cloacae),MIC (Trichophyton benhamiae [8]),MIC (Bacillus subtilis),MIC (Staphylococcus aureus [9]),MIC (Klebsiella pneumoniae [10]),MIC (Salmonella enteritidis),MIC (Staphylococcus aureus [11]),MIC (Enterococcus faecalis),MIC (Pseudomonas aeruginosa [12]),MIC (Proteus vulgaris),MIC (Serratia marcescens),MIC (Trichophyton rubrum [14]),MIC (Shigella flexneri [15]),MIC [16],further results
C#CC#CC#CC#CC(O)/C=C/C=C/C (configuration not stated),> 25 µg/mL,> 25 µg/mL,> 25 µg/mL,3.1 µg/mL,0.2 µg/mL,> 25 µg/mL,> 25 µg/mL,< 0.1 µg/mL,0.4 µg/mL,0.2 µg/mL,> 25 µg/mL,> 25 µg/mL,0.2 µg/mL,3.1 µg/mL,> 25 µg/mL,0.8 µg/mL,> 25 µg/mL,< 0.1 µg/mL,0.8 µg/mL,< 0.1 µg/mL,MIC (Candida albicans [7]): 3.1 µg/mL; MIC (Cryptococcus neoformans): 0.8 µg/mL; MIC (Nannizzia gypsea): 0.4 µg/mL; MIC (Mucor mucedo): 0.2 µg/mL; MIC (Aspergillus fumigatus): 1.5 µg/mL; MIC (Trichophyton benhamiae [13]): < 0.02 µg/mL; MIC (Trichophyton rubrum [17]): < 0.02 µg/mL
C#CC#CC#CC#C/C=C/C=C/C(C)O (racemic),0.8 µg/mL,0.8 µg/mL,0.8 µg/mL,1.5 µg/mL,0.2 µg/mL,> 25 µg/mL,> 25 µg/mL,–,0.8 µg/mL,0.2 µg/mL,1.5 µg/mL,0.8 µg/mL,0.2 µg/mL,3.1 µg/mL,> 25 µg/mL,0.8 µg/mL,0.8 µg/mL,0.2 µg/mL,0.8 µg/mL,0.8 µg/mL,–
C#CC#CC#CC#CC1(O)CCCCC1,25 µg/mL,12.5 µg/mL,> 25 µg/mL,6.2 µg/mL,0.8 µg/mL,> 25 µg/mL,> 25 µg/mL,–,6.2 µg/mL,1.5 µg/mL,> 25 µg/mL,25 µg/mL,1.5 µg/mL,12.5 µg/mL,> 25 µg/mL,3.1 µg/mL,> 25 µg/mL,0.8 µg/mL,6.2 µg/mL,1.5 µg/mL,–

# More lines, main results first:
MIC (Escherichia coli [1]),MIC (Klebsiella pneumoniae [2]),MIC (Escherichia coli [3]),MIC (Candida albicans [4]),MIC (Staphylococcus aureus [5]),MIC (Pseudomonas aeruginosa [6]),MIC (Enterobacter cloacae),MIC (Trichophyton benhamiae [8]),MIC (Bacillus subtilis),MIC (Staphylococcus aureus [9]),MIC (Klebsiella pneumoniae [10]),MIC (Salmonella enteritidis),MIC (Staphylococcus aureus [11]),MIC (Enterococcus faecalis),MIC (Pseudomonas aeruginosa [12]),MIC (Proteus vulgaris),MIC (Serratia marcescens),MIC (Trichophyton rubrum [14]),MIC (Shigella flexneri [15]),MIC [16],Structure (SMILES),further results
0.8 µg/mL,0.8 µg/mL,1.5 µg/mL,0.8 µg/mL,0.1 µg/mL,> 12.5 µg/mL,> 12.5 µg/mL,0.2 µg/mL,0.8 µg/mL,0.2 µg/mL,3.1 µg/mL,0.8 µg/mL,0.2 µg/mL,3.1 µg/mL,> 12.5 µg/mL,0.8 µg/mL,0.8 µg/mL,0.2 µg/mL,0.4 µg/mL,0.2 µg/mL,C#CC#CC#CC#C/C=C/C=C/[C@@H](C)O,–
25 µg/mL,12.5 µg/mL,25 µg/mL,1.5 µg/mL,0.8 µg/mL,> 50 µg/mL,> 50 µg/mL,0.8 µg/mL,12.5 µg/mL,0.8 µg/mL,> 50 µg/mL,25 µg/mL,0.8 µg/mL,12.5 µg/mL,> 50 µg/mL,12.5 µg/mL,> 50 µg/mL,0.4 µg/mL,–,0.8 µg/mL,C#CC#CC#C/C=C/C=C/C(C)O (configuration not stated),MIC (Candida albicans [7]): 1.5 µg/mL; MIC (Cryptococcus neoformans): 1.5 µg/mL; MIC (Nannizzia gypsea): 0.8 µg/mL; MIC (Mucor mucedo): 6.2 µg/mL; MIC (Aspergillus fumigatus): 6.2 µg/mL; MIC (Shigella flexneri [18]): 6.2 µg/mL; MIC (Trichophyton benhamiae [13]): 0.4 µg/mL; MIC (Trichophyton rubrum [17]): 0.4 µg/mL
1.5 µg/mL,3.1 µg/mL,3.1 µg/mL,1.5 µg/mL,0.2 µg/mL,> 25 µg/mL,> 25 µg/mL,0.4 µg/mL,0.8 µg/mL,0.2 µg/mL,> 25 µg/mL,3.1 µg/mL,0.2 µg/mL,6.2 µg/mL,> 25 µg/mL,1.5 µg/mL,1.5 µg/mL,0.2 µg/mL,0.8 µg/mL,0.4 µg/mL,C#CC#CC#CC#C/C=C/C=C/[C@H](C)O,–
